Laboratory results: patent publication EP0752872B1, “NADH OXIDASE AS A TARGET IN DIAGNOSIS AND THERAPY” (Morré, D. James, priority 1994, dated 1995)
pIC50: −log10 of the molar value. Read-outs that look alike come from different tables or passages of the source.

What was measured:
[1] = target: T1, NADH oxidase from HeLa cell plasma membranes (Homo sapiens, UniProt Q16206); assay: Spectrophotometric NADH oxidase assay, HeLa plasma membranes; format: biochemical
T1 sequence (Q16206 1-610): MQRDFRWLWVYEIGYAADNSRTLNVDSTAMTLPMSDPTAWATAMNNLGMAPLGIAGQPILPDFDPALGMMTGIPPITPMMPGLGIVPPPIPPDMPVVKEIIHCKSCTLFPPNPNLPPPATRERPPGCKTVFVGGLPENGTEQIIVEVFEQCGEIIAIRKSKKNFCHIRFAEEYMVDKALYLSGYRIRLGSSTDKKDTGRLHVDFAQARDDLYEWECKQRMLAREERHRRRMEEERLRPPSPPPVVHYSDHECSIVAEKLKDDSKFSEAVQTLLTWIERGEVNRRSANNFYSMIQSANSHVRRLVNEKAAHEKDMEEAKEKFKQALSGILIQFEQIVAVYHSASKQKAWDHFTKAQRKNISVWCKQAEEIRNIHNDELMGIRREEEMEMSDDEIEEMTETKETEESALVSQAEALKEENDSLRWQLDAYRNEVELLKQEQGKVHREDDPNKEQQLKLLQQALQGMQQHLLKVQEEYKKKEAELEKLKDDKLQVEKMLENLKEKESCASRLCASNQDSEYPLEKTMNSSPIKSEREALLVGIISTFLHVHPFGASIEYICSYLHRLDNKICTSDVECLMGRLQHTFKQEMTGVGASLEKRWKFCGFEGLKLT
Description: Purification of plasma membranes from HeLa cells. HeLa cells were grown as suspension cultures in minimum essential medium (MEM) supplemented with horse serum, diferric transferrin and heparin. Cells were collected by centrifugation for 6 to 15 min at 1,000 to 3,000 rpm. The cell pellets were resuspended in 0.2 mM EDTA in 1 mM NaHCO3 in an approximate ratio of 1 ml per 10^8 cells and incubated on ice for 10 to 30 min to swell the cells. Homogenization was with a Polytron Homogenizer for 30 to 40 sec at 10,500 rpm using a PT-PA 3012/23 or ST-probe in 7 to 8 ml aliquots. To estimate breakage, the cells are monitored by light microscopy before and after homogenization. […]
The homogenates were centrifuged for 10 min at 1,000 rpm (175 g) to remove unbroken cells and nuclei and the supernatant was centrifuged a second time at 1.4 x 10^6 g min (e.g. 1 h at 23,500 g) to prepare a plasma membrane enriched microsome fraction. […] The purity of the plasma membrane was determined to be > 90% by electron microscope morphometry. […]
Spectrophometric assay of NADH oxidase. NADH oxidase activity was determined as the disappearance of NADH measured at 340 nm in a reaction mixture containing 25 mM Tris-MES buffer (pH 7.2), 1 mM KCN to inhibit the low levels of contaminating mitochondrial oxidase activity, and 150 µM NADH at 37°C with constant stirring. […]

normal rat kidney cells = assay: Growth of normal rat kidney cells; format: cell-based
HeLa cells = assay: Growth of HeLa cells in culture; format: cell-based, human; conditions: Homo sapiens, HeLa, 72 h
Description: Growth of cells. HeLa cells (ATCC CCL2), were grown in 150 cm^2 flasks in Minimal Essential Medium (Gibco), pH 7.4. at 37°C with 10% bovine calf serum (heat-inactivated), plus 50 mg/l gentamycin sulfate (Sigma). Cells were trypsinized with Sigma IX trypsin for 1 to 2 min, harvested by scraping and taken up in TD-tris buffer (140 mM NaCl, 5 mM KCl, 0.7 mM Na2HPO4 and 25 mM Tris, pH 7.4) to a final cell concentration of 0.1 g wet weight (gww) per ml.
The number of cells initially plated was subtracted. The results were averages from duplicate experiments.

[2] = tested on: Protein disulfide-thiol interchange activity of HeLa plasma membrane; assay: Protein disulfide-thiol interchange (RNAse activity with cCMP as substrate); format: biochemical, human
Description: Estimation of protein disulfide isomerase- (PDI) like activity. Two methods were employed to determine PDI or PDI-like activity.
In the first method, ribonuclease A activity was measured using a spectrophotometric assay based on cCMP as RNAse substrate. Scrambled RNAse ([…]) was incubated together with 0.45 mM cCMP in 50 Mm Tris-MES buffer, pH 6.5, at 30°C in a final volume of 3 ml. […] A variation of this assay was to preincubate scrambled RNAse with transitional endoplasmic reticulum for 20 min in the presence or absence of 1 µM all-trans retinol (using ethanol as control) and in the presence or absence of 1 µM reduced or oxidized glutathione or a mixture of both. After this 20 min of "reactivation" of RNAse, cCMP was added to a final concentration of 0.45 mM to initiate the reaction. The increase of the absorbance at 296 nm was recorded over 25 min and the concentrations of cCMP were determined (E = 0.19 mM^-1cm^-1). Spectrophotometric measurements were with a Hitachi U3210 spectrophotometer with a thermostatic cell compartment maintained at 30°C with continuous stirring.
Preparation of scrambled RNAse substrate. To prepare the oxidized, denatured RNAse substrate (scrambled RNAse), native RNAse A (Sigma, Type 1-AS from bovine pancreas) (30 µg/ml) was incubated 1 h at 35°C in 50 mM Tris-acetate, pH 8.6, containing 9 M urea and 130 mM DTT.
Protein concentration was estimated from spectrophotometric measurement at 280 nm using native RNAse A as standard. For preparation of scrambled RNAse, the reduced RNAse was diluted to 0.5 mg/ml with 0.1 M acetic acid. Solid urea was then added to a final concentration of 10 M after which 0.1 M sarcosine hydrochloride was added and the pH adjusted to 8.5 with 1 M Tris. The mixture then was incubated in the dark for 2-3 days during which time the protein was randomly oxidized. The scrambled product was recovered by acidification to pH 4 with glacial acetic acid and elution from Sephadex G-25 in 0.1 M acetic acid. Fractions containing protein were pooled, adjusted to pH 8 and stored at 4°C.

COc1cc(CNC(=O)CCCC/C=C/C(C)C)ccc1O [capsaicin]
inhibition of NADH oxidase activity (in words) [1]: nearly completely inhibited | concentration at which growth is inhibited (normal rat kidney cells): > 10^-5 M | pIC50 (HeLa cells; read-out: concentration at which growth was 50% inhibited): ~6.00 | pIC50 (HeLa cells; read-out: concentration of drug able to inhibit growth by 50%): < 5.00 | Protein disulfide-thiol interchange activity [2]: .95 nmoles/min/mg protein
